The values that follow come from US8119633B2, “Substituted sulfonamide compounds” (Gruenenthal GmbH, priority 2007, dated 2012).

Experiment [1] deals with T1, bradykinin receptor 1 (B1R) of the rat (Rattus norvegicus, UniProt P97583).
T1 construct: expressed in transfected cells; host or cells: CHO K1 cells
T1 sequence (P97583 1-337): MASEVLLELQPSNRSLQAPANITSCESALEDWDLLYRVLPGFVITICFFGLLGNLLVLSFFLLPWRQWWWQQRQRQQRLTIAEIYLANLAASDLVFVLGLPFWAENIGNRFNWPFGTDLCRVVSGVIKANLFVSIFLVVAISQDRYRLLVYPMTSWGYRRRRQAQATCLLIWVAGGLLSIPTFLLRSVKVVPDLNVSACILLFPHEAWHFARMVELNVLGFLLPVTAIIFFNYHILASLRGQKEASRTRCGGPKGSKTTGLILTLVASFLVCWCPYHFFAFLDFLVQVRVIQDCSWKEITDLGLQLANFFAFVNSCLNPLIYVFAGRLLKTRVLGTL
Put plainly: Functional study on the bradykinin receptor 1 (B1R), rat: FLIPR Ca2+ influx assay. In kind it is cell-based. The settings on record: test substance 10 μM; CHO K1 cells transfected with rat B1R; Des-Arg9-bradykinin at EC80; Ca2+ influx (Fluo-4, FLIPR); read-out: B1R antagonism, rat [10 μM] % inhibition. An excerpt: (§1) The agonistic or antagonistic action of substances can be determined on the bradykinin receptor 1 (B1R) of the species human and rat using the following assay. According to this assay, the Ca^2+ influx through the channel is quantified with the aid of a Ca^2+-sensitive dye (Fluo-4 type, Molecular Probes Europe BV, Leiden, Netherlands) using a Fluorescent Imaging Plate Reader (FLIPR, Molecular Devices, Sunnyvale, USA).
(§2) Chinese hamster ovary cells (CHO K1 cells) which have been stably transfected with the human B1R gene (hB1R cells) or with the B1R gene of the rat (rB1R cells) are used. For functional studies, the cells are plated out on black 96-well plates having a clear base (BD Biosciences, Heidelberg, Germany or Greiner, Frickenhausen, Germany) in a density of 20,000-35,000 cells/well. The cells are incubated overnight at 37° C. and with 5% CO2 in culture medium (hB1R cells: Nutrient Mixture Ham's F12, Gibco Invitrogen GmbH, Karlsruhe, Germany or DMEM, Sigma-Aldrich, Taufkirchen, Germany; rB1R cells: D-MEM/F12, Gibco Invitrogen GmbH, Karlsruhe, Germany), with 10 vol. % FBS (fetal bovine serum, Gibco Invitrogen GmbH, Karlsruhe, Germany or PAN Biotech GmbH, Aidenbach, Germany).
(§3) On the following day, the cells are loaded for 60 minutes at 37° C. with 2.13 μM Fluo-4 (Molecular Probes Europe BV, Leiden, Netherlands) in HBSS buffer (Hank's buffered saline solution, Gibco Invitrogen GmbH, Karlsruhe, Germany) with 2.5 mM probenecid (Sigma-Aldrich, Taufkirchen, Germany) and 10 mM HEPES (Sigma-Aldrich, Taufkirchen, Germany). The plates are then washed twice with HBSS buffer, and HBSS buffer additionally containing 0.1% BSA (bovine serum albumin; Sigma-Aldrich, Taufkirchen, Germany), 5.6 mM glucose and 0.05% gelatin (Merck KGaA, Darmstadt, Germany) is added to the plates. After incubation for a further 20 minutes at room temperature, the plates are inserted into the FLIPR for Ca^2+ measurement. Alternatively, washing is carried out with buffer A (15 mM HEPES, 80 mM NaCl, 5 mM KCl, 1.2 mM CaCl2, 0.7 mM MgSO4, 2 g/l glucose, 2.5 mM probenecid) followed by loading with buffer A with added 2.5 μM Fluo-4 and 0.025% Pluronic F127 (Sigma-Aldrich, Taufkirchen, Germany). The cells are then washed twice with buffer A and incubated for 30 minutes at room temperature with buffer A additionally containing 0.05% BSA and 0.05% gelatin and are then inserted into the FLIPR for Ca^2+ measurement.
(§4) The Ca^2+-dependent fluorescence is measured before and after the addition of substances (λex=488 nm, λem=540 nm). Quantification is carried out by measuring the highest fluorescence intensity (FC, fluorescence counts) over time.
(§5) The FLIPR protocol consists of two substance additions. Test substances (10 μM) are first pipetted onto the cells and the Ca^2+ influx is compared with the control (hB1R: Lys-Des-Arg^9-bradykinin>=0.5 nM; rB1R: Des-Arg^9-bradykinin 10 μM). This gives the activation in %, based on the Ca^2+ signal after addition of Lys-Des-Arg^9-bradykinin (>=0.5 nM) or Des-Arg^9-bradykinin (10 μM).
(§6) After 10-20 minutes' incubation, Lys-Des-Arg^9-bradykinin (hB1R) or Des-Arg^9-bradykinin (rB1R) is applied in the concentration of the EC80, and the influx of Ca^2+ is likewise determined.
(§7) Antagonists lead to suppression of the Ca^2+ influx. The % inhibition compared with the maximum achievable inhibition is calculated.
(§8) In order to determine the IC50 value, the substances are added in various concentrations. Duplicate or triplicate determinations (n=2 or n=3) are carried out, and these are repeated in at least one further independent experiment (N>=2).

In experiment [2] the target is T2, human bradykinin receptor 1 (B1R) (Homo sapiens, UniProt P46663).
T2 construct: expressed in transfected cells; host or cells: CHO K1 cells
T2 sequence (P46663 1-353): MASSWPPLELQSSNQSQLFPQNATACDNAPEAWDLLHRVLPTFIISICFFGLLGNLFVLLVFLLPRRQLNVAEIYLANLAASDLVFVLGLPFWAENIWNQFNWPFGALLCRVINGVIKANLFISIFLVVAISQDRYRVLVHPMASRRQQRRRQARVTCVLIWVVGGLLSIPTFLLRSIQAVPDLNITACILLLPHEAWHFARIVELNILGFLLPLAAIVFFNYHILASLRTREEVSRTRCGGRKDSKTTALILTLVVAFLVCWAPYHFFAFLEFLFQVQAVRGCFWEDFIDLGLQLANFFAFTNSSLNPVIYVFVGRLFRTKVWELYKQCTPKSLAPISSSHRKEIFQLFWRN
The experiment can be described thus: Functional study on the bradykinin receptor 1 (B1R), human: FLIPR Ca2+ influx assay. The format is cell-based. The settings on record: test substance 10 μM; CHO K1 cells transfected with human B1R; Lys-Des-Arg9-bradykinin at EC80; Ca2+ influx (Fluo-4, FLIPR); read-out: B1R antagonism, human [10 μM] % inhibition.
Source text: Functional Study on the Human Bradykinin Receptor 1 (B1R)
as §1, §2, §3, §4, §5, §6, §7, §8

As to `CN(C)C(c1ccc(F)cc1)C1CCC(CCNC(=O)c2ccccc2N(C)S(=O)(=O)c2ccc(Cl)c(Cl)c2)CC1` (stereo not shown) [Example 45, 2-[(3,4-dichloro-benzenesulfonyl)-methyl-amino]-N-(2-{4-[dimethylamino-(4-fluoro-phenyl)-methyl]-cyclohexyl}-ethyl)-benzamide], the inhibition (in general, the drop in the measured response relative to a control, in per cent) at 10 µM in experiment [1] came out at 26%; in experiment [2], 75.7%.
`COc1ccc(S(=O)(=O)N2CCc3ccccc3C2CC(=O)NCCC2CCC(C(c3cccc(F)c3)N(C)C)CC2)cc1` (stereo not shown) [Example 23, N-(2-{4-[dimethylamino-(3-fluoro-phenyl)-methyl]-cyclohexyl}-ethyl)-2-[2-(4-methoxy-benzenesulfonyl)-1,2,3,4-tetrahydro-isoquinolin-1-yl]-acetamide]: the inhibition at 10 µM in experiment [1] turned out to be 57%; in experiment [2], 64%.
For `CN(C)C(c1ccccc1)C1CCC(CNC(=O)C2Cc3ccccc3N2S(=O)(=O)c2ccc(Cl)c(Cl)c2)CC1` (stereo not shown) [Example 95, 1-(3,4-dichlorophenylsulfonyl)-N-((4-((dimethylamino)(phenyl)methyl)cyclohexyl)methyl)indoline-2-carboxamide], the inhibition at 10 µM in experiment [1] is -15%; in experiment [2] it was 18.6%.
On to `CN(C)C(CCc1ccccc1)C1CCC(CCNC(=O)Cc2ccccc2N(C)S(=O)(=O)c2ccc(Cl)c(Cl)c2)CC1` (stereo not shown) [Example 99, 2-(2-(3,4-dichloro-N-methylphenylsulfonamido)phenyl)-N-(2-(4-(1-(dimethylamino)-3-phenylpropyl)cyclohexyl)ethyl)acetamide], for which the inhibition at 10 µM in experiment [1] is -7%; in experiment [2] it was 83.3%.
As for `CN(C)C(c1ccc(Cl)cc1)C1CCC(CCNC(=O)CC2c3ccccc3CCN2S(=O)(=O)c2ccc(Cl)c(Cl)c2)CC1` (stereo not shown) [Example 33, N-(2-{4-[(4-chloro-phenyl)-dimethylamino-methyl]-cyclohexyl}-ethyl)-2-[2-(3,4-dichloro-benzenesulfonyl)-1,2,3,4-tetrahydro-isoquinolin-1-yl]-acetamide], the inhibition at 10 µM in experiment [1] came out at 18%; in experiment [2], 42.2%.
As to `CN(C)C(c1cccc(F)c1)C1CCC(CCNC(=O)CC2c3ccccc3CCN2S(=O)(=O)c2ccc(Cl)c(Cl)c2)CC1` (stereo not shown) [Example 34, 2-[2-(3,4-dichloro-benzenesulfonyl)-1,2,3,4-tetrahydro-isoquinolin-1-yl]-N-(2-{4-[dimethylamino-(3-fluoro-phenyl)-methyl]-cyclohexyl}-ethyl)-acetamide], the values for the inhibition at 10 µM in experiment [1] and in experiment [2] were 41% and 71.2%, respectively.
With `CN(C)C(c1ccc(Cl)cc1)C1CCC(CNC(=O)CC2c3ccccc3CCN2S(=O)(=O)c2ccc(Cl)c(Cl)c2)CC1` (stereo not shown) [Example 32, N-{4-[(4-chloro-phenyl)-dimethylamino-methyl]-cyclohexylmethyl}-2-[2-(3,4-dichloro-benzenesulfonyl)-1,2,3,4-tetrahydro-isoquinolin-1-yl]-acetamide], the inhibition at 10 µM turned out to be 15% in experiment [1] and 10.7% in experiment [2].
Regarding `COc1ccc(S(=O)(=O)N2CCc3ccccc3C2CC(=O)NCC2CCC(C(c3cccc(F)c3)N(C)C)CC2)cc1` (stereo not shown) [Example 16, N-{4-[dimethylamino-(3-fluoro-phenyl)-methyl]-cyclohexylmethyl}-2-[2-(4-methoxy-benzenesulfonyl)-1,2,3,4-tetrahydro-isoquinolin-1-yl]-acetamide], the inhibition at 10 µM turned out to be 57% in experiment [1] and 35.5% in experiment [2].
For `CN(C)C(CCc1ccccc1)C1CCC(CCNC(=O)C2Cc3ccccc3N2S(=O)(=O)c2ccc(Cl)c(Cl)c2)CC1` (stereo not shown) [Example 97, 1-(3,4-dichlorophenylsulfonyl)-N-(2-(4-(1-(dimethylamino)-3-phenylpropyl)cyclohexyl)ethyl)indoline-2-carboxamide] the same measures were 11% and 16%.
Taken in the same sequence, the figures for `CN(C)C(c1ccccc1)C1CCC(CNC(=O)c2ccccc2N(C)S(=O)(=O)c2ccc(Cl)c(Cl)c2)CC1` (stereo not shown) [Example 38, 2-[(3,4-dichloro-benzenesulfonyl)-methyl-amino]-N-[4-(dimethylamino-phenylmethyl)-cyclohexylmethyl]-benzamide] were 15% and 17.9%.
Consider `CN(C)C(c1ccc(F)cc1)C1CCC(CCNC(=O)CC2c3ccccc3CCN2S(=O)(=O)c2ccc(Cl)c(Cl)c2)CC1` (stereo not shown) [Example 35, 2-[2-(3,4-dichloro-benzenesulfonyl)-1,2,3,4-tetrahydro-isoquinolin-1-yl]-N-(2-{4-[dimethylamino-(4-fluoro-phenyl)-methyl]-cyclohexyl}-ethyl)-acetamide], for which the inhibition at 10 µM in experiment [1] amounted to 49%; in experiment [2] it was 79.5%.
On to `COc1ccc(S(=O)(=O)N2CCc3ccccc3C2CC(=O)NCC2CCC(C(c3cccs3)N(C)C)CC2)cc1` (stereo not shown) [Example 21, N-[4-(dimethylamino-thiophen-2-yl-methyl)-cyclohexylmethyl]-2-[2-(4-methoxybenzenesulfonyl)-1,2,3,4-tetrahydro-isoquinolin-1-yl]-acetamide], for which the inhibition at 10 µM in experiment [1] was 41%; in experiment [2] it was 52.9%.
For `COc1ccc(S(=O)(=O)N2CCc3ccccc3C2CC(=O)NC2CCC(C(c3ccccc3)N(C)C)CC2)cc1` (stereo not shown) [Example 9, N-[4-(dimethylamino-phenyl-methyl)-cyclohexyl]-2-[2-(4-methoxy-benzenesulfonyl)-1,2,3,4-tetrahydro-isoquinolin-1-yl]-acetamide], the inhibition at 10 µM stood at 0% in experiment [1] and 105% in experiment [2].
For the compound `CN(C)C(CCc1ccccc1)C1CCC(CNC(=O)c2ccccc2N(C)S(=O)(=O)c2ccc(Cl)c(Cl)c2)CC1` (stereo not shown) [Example 39, 2-[(3,4-dichloro-benzenesulfonyl)-methyl-amino]-N-[4-(1-dimethylamino-3-phenyl-propyl)-cyclohexylmethyl]-benzamide], the inhibition at 10 µM in experiment [1] stood at 42%; in experiment [2], 79.3%.
